Data: patent publication US12453709B2, “Compositions and methods for treating autism” (priority 2013, dated 2025)

Assays:
[1] = test system: male patients diagnosed with autism; assay: Study HT 02-121: ECGs and laboratory evaluations; format: in vivo, human
Protocol: (§1) The first five patients in each cohort were assigned to receive active medication in an open-label fashion. The patients were treated identically to the randomized patients with the following exceptions: (1) blood samples were drawn at baseline and 1 hour after dosing, and at Week 1, 2, 3 and 4 treatment visits 1 hour after dosing to determine the PK of L1-79, (2) EKGs were assessed at baseline and within 3-days prior to the Week 1, 2, 3 and 4 treatment visits as well as the 1-week and 4-week post-dosing follow-up visits, (3) vital signs, physical exams, and ASD assessments were performed at 1-week postdosing visit, (4) blood and urine samples were drawn at baseline and at Week 1, 2, 3 and 4 treatment visits 1 hour after dosing as well as the 1-week and 4-week post-dosing follow-up visits for safety analyses.
Safety was the primary endpoint of the study. The following safety endpoints were assessed: ECGs, physical exams, laboratory evaluations (hematology, chemistry and urinalysis), vital signs, including orthostatic blood pressure, adverse events (AEs) and concomitant medications.
Of note was the observation that half (50%) of the patients on L1-79 developed crystalluria compared to 30% of placebo treated patients. Of those that developed crystalluria during the study, approximately half (50%) had concentrated urine (specific gravity>1.025). […]

[2] = test system: male patients diagnosed with autism; assay: Study HT 02-121: Repetitive Behavior Scale-Revised (RBS-R); format: in vivo, human; details: for RBS-R Compulsive Behavior Mean Change from Baseline / RBS-R Compulsive Behavior Treatment effect versus placebo / RBS-R Compulsive Behavior change, median / RBS-R Restricted Behavior Mean Change from Baseline / RBS-R Restricted Behavior Treatment effect versus placebo / RBS-R Restricted Behavior change, median / RBS-R Ritualistic Behavior Mean Change from Baseline / RBS-R Ritualistic Behavior Treatment effect versus placebo / RBS-R Ritualistic Behavior change, median / RBS-R Sameness Behavior Mean Change from Baseline / RBS-R Sameness Behavior Treatment effect versus placebo / RBS-R Sameness Behavior change, median / RBS-R Self Injurious Behavior Mean Change from Baseline / RBS-R Self Injurious Behavior Treatment effect versus placebo / RBS-R Self Injurious Behavior change, median / RBS-R Stereotypic Behavior Mean Change from Baseline / RBS-R Stereotypic Behavior Treatment effect versus placebo / RBS-R Stereotypic Behavior change, median / RBS-R Total Score Mean Change from Baseline / RBS-R Total Score Treatment effect versus placebo / RBS-R Total Score change, median: Week 4/LOCF
Protocol: (§2) This clinical study was a randomized double-blind, placebo-controlled two-cohort, 4-week dose-escalation study that incorporated two open-label treatment groups to assess the safety and efficacy of L1-79 100 mg and 200 mg TID in male patients between the ages of […] years of age diagnosed with autism. The first cohort of 20 patients was comprised of three groups of patients: The first group of five patients received open-label L1-79 100 mg TID and underwent PK and EKG assessments. The remaining two groups in this cohort consisted of 15 patients randomized on a 2:1 basis to receive L1-79 100 mg TID or placebo. The PK and safety data from the open-label L1-79 100 mg TID group was submitted to FDA for review and acceptance before the second cohort was enrolled. The second cohort was procedurally identical to the first. The second cohort of 20 patients was comprised of the same three groups of patients but a dose of 200 mg TID was used instead of 100 mg TID. The key inclusion criteria were as follows: (1) males between 13 and 21 years of age, (2) DSM-5 compliant diagnosis of autism spectrum disorder, confirmed by the Autistic Diagnosis Interview Review (ADIR), and by an ADOS-2 score consistent with a diagnosis of autism, (3) must have been stable on no more than one concomitant medication and no planned changes in psychosocial interventions during the study.
(§3) The primary efficacy endpoint was the determination of the clinical improvement by the investigator as documented by the Clinical Global Impression (CGI) rating scales. Additional efficacy endpoints included: (1) changes from baseline in the Socialization and Communication Domains of the Vineland Adaptive Behavior Scales, Second Edition (VABS II) parent/caregiver rating form, (2) changes from baseline in the ADOS-2 Total Score and subscores, (3) changes in the Social Responsiveness Scale, Second Edition (SRS-2) Total Score and subscales, (4) changes in the ABC-C domains, (5) changes in the Repetitive Behavior Scale-Revised (RBS-R) Total Score and subscales. Given the exploratory design of this study only descriptive statistics were planned.
In the preliminary study, all forms were completed at the study site in the presence of the investigator. In Cohort 1 of the present study, the VABS-II, SRS-2, ABC-C and RBS-R were filled out at home by the patient/patient's families prior to treatment visits and returned at treatment visits in order to expedite the execution of the study. […]

[3] = Study HT 02-121: L1-79 plasma concentrations (pharmacokinetics); format: in vivo; details: male, human, open-label 200 mg TID, read-out: plasma concentration at 1-hour post-dose on Day 1
Protocol: as §1
Pharmacokinetics were assessed in the open-label 100 mg and 200 mg TID patients. On Day 1, L-79 concentrations were assessed one-hour post dose. Subsequently, a random L1-79 plasma concentration was assessed at Week 1, Week 2, Week 3 and Week 4.

[4] = test system: patients qualified under the DSM-5 definition of autism; assay: Example 4: adverse events and clinical observation; format: in vivo, human
Protocol: α-methyl-DL tyrosine (AMPT) was administered to 3 patients. This group of patients was qualified under the DSM-5 definition of autism and treated.

[5] = test system: male patients diagnosed with autism; assay: Study HT 02-121: Vineland Adaptive Behavior Scales, Second Edition (VABS II); format: in vivo, human; details: Week 4/LOCF
Protocol: as §2, §3
In the preliminary study, all forms were completed at the study site in the presence of the investigator. In Cohort 1 of the present study, the VABS-II, SRS-2, ABC-C and RBS-R were filled out at home by the patient/patient's families prior to treatment visits and returned at treatment visits in order to expedite the execution of the study.

SMILES: CC(N)(Cc1ccc(O)cc1)C(=O)O (racemic) [L1-79, α-methyl-DL-tyrosine]
- changes from baseline EKGs ([1]; any of the patients): No clinically significant changes
- patients who developed crystalluria ([1]; patients on L1-79, placebo 30%): 50%
- RBS-R Compulsive Behavior Mean Change from Baseline ([2]; DB 100 mg TID): −1.2
- RBS-R Compulsive Behavior Treatment effect versus placebo ([2]; DB 100 mg TID): 0.3
- RBS-R Compulsive Behavior change, median ([2]; DB 100 mg TID): −2, 0, 1
- RBS-R Restricted Behavior Mean Change from Baseline ([2]; DB 100 mg TID): 1.3
- RBS-R Restricted Behavior Treatment effect versus placebo ([2]; DB 100 mg TID): 2.9
- RBS-R Restricted Behavior change, median ([2]; DB 100 mg TID): 0, 1, 1
- RBS-R Ritualistic Behavior Mean Change from Baseline ([2]; DB 100 mg TID): 0.1
- RBS-R Ritualistic Behavior Treatment effect versus placebo ([2]; DB 100 mg TID): 3.8
- RBS-R Ritualistic Behavior change, median ([2]; DB 100 mg TID): −1, 0, 2
- RBS-R Sameness Behavior Mean Change from Baseline ([2]; DB 100 mg TID): −0.7
- RBS-R Sameness Behavior Treatment effect versus placebo ([2]; DB 100 mg TID): 2.2
- RBS-R Sameness Behavior change, median ([2]; DB 100 mg TID): −1, −1, 0
- RBS-R Self Injurious Behavior Mean Change from Baseline ([2]; DB 100 mg TID): −2.2
- RBS-R Self Injurious Behavior Treatment effect versus placebo ([2]; DB 100 mg TID): −0.1
- RBS-R Self Injurious Behavior change, median ([2]; DB 100 mg TID): −2, 0, 0
- RBS-R Stereotypic Behavior Mean Change from Baseline ([2]; DB 100 mg TID): −0.6
- RBS-R Stereotypic Behavior Treatment effect versus placebo ([2]; DB 100 mg TID): −0.1
- RBS-R Stereotypic Behavior change, median ([2]; DB 100 mg TID): 0, 0, 0
- RBS-R Total Score Mean Change from Baseline ([2]; DB 100 mg TID): −3.2
- RBS-R Total Score Treatment effect versus placebo ([2]; DB 100 mg TID): 7.8
- RBS-R Total Score change, median ([2]; DB 100 mg TID): −6, −4, −1
- RBS-R Compulsive Behavior Mean Change from Baseline ([2]; DB 200 mg TID): −2.7
- RBS-R Compulsive Behavior Treatment effect versus placebo ([2]; DB 200 mg TID): −1.2
- RBS-R Compulsive Behavior change, median ([2]; DB 200 mg TID): −3, 0, 0
- RBS-R Restricted Behavior Mean Change from Baseline ([2]; DB 200 mg TID): −2.5
- RBS-R Restricted Behavior Treatment effect versus placebo ([2]; DB 200 mg TID): −1.0
- RBS-R Restricted Behavior change, median ([2]; DB 200 mg TID): −5, −1, 0
- RBS-R Ritualistic Behavior Mean Change from Baseline ([2]; DB 200 mg TID): −3.1
- RBS-R Ritualistic Behavior Treatment effect versus placebo ([2]; DB 200 mg TID): 0.6
- RBS-R Ritualistic Behavior change, median ([2]; DB 200 mg TID): −5, −1, 0
- RBS-R Sameness Behavior Mean Change from Baseline ([2]; DB 200 mg TID): 4.2
- RBS-R Sameness Behavior Treatment effect versus placebo ([2]; DB 200 mg TID): −1.3
- RBS-R Sameness Behavior change, median ([2]; DB 200 mg TID): −9, 0, 0
- RBS-R Self Injurious Behavior Mean Change from Baseline ([2]; DB 200 mg TID): −1.7
- RBS-R Self Injurious Behavior Treatment effect versus placebo ([2]; DB 200 mg TID): 0.4
- RBS-R Self Injurious Behavior change, median ([2]; DB 200 mg TID): −1, 0, 0
- RBS-R Stereotypic Behavior Mean Change from Baseline ([2]; DB 200 mg TID): −1.8
- RBS-R Stereotypic Behavior Treatment effect versus placebo ([2]; DB 200 mg TID): −1.4
- RBS-R Stereotypic Behavior change, median ([2]; DB 200 mg TID): −5, 0, 0
- RBS-R Total Score Mean Change from Baseline ([2]; DB 200 mg TID): −16.1
- RBS-R Total Score Treatment effect versus placebo ([2]; DB 200 mg TID): −5.1
- RBS-R Total Score change, median ([2]; DB 200 mg TID): −28, −2, 0
- RBS-R Total Score compared to placebo ([2]; L1-79 200 mg): mean improvements
- RBS-R Total Score responders (improvement or stabilization of symptoms) ([2]; L1-79 200 mg, placebo 78%): 91%
- concentration at 1 h [3]: 23 to 1680 ng/mL
- adverse events reported ([4]; Example 4 patients): mild tiredness on the first day of dosing in two patients
- clinical improvements, onset and durability ([4]; Example 4 patients): begin quickly and are durable
- Adverse Events ([4]; patient 01-001, 90 TID): None
- Adverse Events ([4]; patient 01-002, 90 TID): None
- Adverse Events ([4]; patient 01-003, 90 TID): None
- VABS II Standardized Communication Score Mean Change from Baseline ([5]; DB 100 mg TID): 10.1
- VABS II Standardized Communication Score Treatment effect versus placebo ([5]; DB 100 mg TID): 3.6
- VABS II Standardized Communication Score change, median ([5]; DB 100 mg TID): −1, 5, 16
- VABS II Standardized Socialization Score Mean Change from Baseline ([5]; DB 100 mg TID): −4.2
- VABS II Standardized Socialization Score Treatment effect versus placebo ([5]; DB 100 mg TID): −5.0
- VABS II Standardized Socialization Score change, median ([5]; DB 100 mg TID): −13, −12, 9
- VABS II Standardized Communication Score Mean Change from Baseline ([5]; DB 200 mg TID): 2.7
- VABS II Standardized Communication Score Treatment effect versus placebo ([5]; DB 200 mg TID): −3.8
- VABS II Standardized Communication Score change, median ([5]; DB 200 mg TID): 0, 1, 3
- VABS II Standardized Socialization Score Mean Change from Baseline ([5]; DB 200 mg TID): 7.6
- VABS II Standardized Socialization Score Treatment effect versus placebo ([5]; DB 200 mg TID): 6.8
- VABS II Standardized Socialization Score change, median ([5]; DB 200 mg TID): 0, 1, 20
